Reference: PubChem BioAssay (NCI)
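Exposure lasted 48 hours, with cells grown in 96-well plates and compounds tested at five concentrations. At the GI50, growth is halved. TGI is the concentration that stops growth completely.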

Legend:
Experiment in all cases: NCI anticancer screen, dose series, 48 h
U251 CNS = system: U251 CNS
OVCAR-3 ovarian = system: OVCAR-3 ovarian
786-0 renal = system: 786-0 renal
SN12C renal = system: SN12C renal
SW-620 colon = system: SW-620 colon
HL-60(TB) leukemia = system: HL-60(TB) leukemia
HT29 colon = system: HT29 colon
IGROV1 ovarian = system: IGROV1 ovarian
OVCAR-4 ovarian = system: OVCAR-4 ovarian
NCI-H23 lung = system: NCI-H23 lung

| SMILES | TGI (U251 CNS) | TGI (OVCAR-3 ovarian) | TGI (786-0 renal) | TGI (SN12C renal) | TGI (SW-620 colon) | TGI (HL-60(TB) leukemia) | TGI (HT29 colon) | TGI (IGROV1 ovarian) | TGI (OVCAR-4 ovarian) | TGI (NCI-H23 lung) | GI50 (U251 CNS) | GI50 (OVCAR-3 ovarian) | GI50 (786-0 renal) | GI50 (SN12C renal) | GI50 (SW-620 colon) | GI50 (HL-60(TB) leukemia) | GI50 (HT29 colon) | GI50 (IGROV1 ovarian) | GI50 (OVCAR-4 ovarian) | GI50 (NCI-H23 lung) |
| --- | --- | --- | --- | --- | --- | --- | --- | --- | --- | --- | --- | --- | --- | --- | --- | --- | --- | --- | --- | --- |
| COc1ccccc1-c1cc(=O)c2cc(C)c(C)c(C(=O)O)c2o1 | > 100 µM | > 100 µM | > 100 µM | > 100 µM | > 100 µM | > 100 µM | > 100 µM | > 100 µM | > 100 µM | > 100 µM |  |  |  |  |  |  |  |  |  |  |
| CCOc1ccc(N=C(NC(=O)c2ccccc2)SC)cc1 | > 100 µM | > 100 µM | > 100 µM | > 100 µM | > 100 µM | > 100 µM | > 100 µM | > 100 µM | > 100 µM | > 100 µM |  |  |  |  |  |  |  |  |  |  |
| COc1cc2c(c3c1c(=O)c1ccccc1n3C)C=CC(C)(C)O2 | > 100 µM | > 100 µM | > 100 µM | > 100 µM | > 100 µM | > 100 µM | > 100 µM | > 100 µM | > 100 µM | > 100 µM |  |  |  |  |  |  |  |  |  |  |
| COc1cc(C2=NN(C(C)=O)C(c3cc(OC)c(OC)c(OC)c3)C2)ccc1O (stereo unspecified) | > 100 µM | 5.21 µM | > 100 µM | > 100 µM | > 100 µM | 0.514 µM | > 100 µM | > 100 µM | > 100 µM | > 100 µM | 0.42 µM | 0.289 µM | 0.458 µM | 0.882 µM | 0.296 µM | 0.182 µM | 0.358 µM | 0.584 µM | 0.532 µM | 0.51 µM |
| COc1cc([C@@H]2c3cc4c(cc3[C@H](OC(C)=O)[C@H]3COC(=O)[C@@H]23)OCO4)cc(OC)c1OC | > 100 µM |  | > 100 µM | > 100 µM | > 100 µM |  |  | > 62.5 µM | > 100 µM |  | 0.377 µM | 0.317 µM | 0.379 µM | 0.759 µM | 0.36 µM | 0.235 µM | 0.343 µM | 0.401 µM | 2.11 µM | 0.333 µM |
| CSc1ncnc2c1ncn2CC(=O)C1CCC2C3CCC4=CC(=O)CCC4(C)C3CCC12C (stereo unspecified) | 42.4 µM | 25.8 µM | > 100 µM | > 93.8 µM | > 100 µM | 0.926 µM | > 100 µM | > 100 µM | 21.3 µM | 35.2 µM |  |  |  |  |  |  |  |  |  |  |
| O=C1/C(=C\c2ccco2)Oc2ccccc21 | > 100 µM | > 100 µM | > 100 µM | > 100 µM | > 100 µM | > 100 µM | > 100 µM | > 100 µM | > 100 µM | > 100 µM |  |  |  |  |  |  |  |  |  |  |
| O=C1c2ccccc2C(=O)C12CCc1ccccc12 | > 100 µM | > 100 µM | > 100 µM | > 100 µM | > 100 µM | > 100 µM | > 100 µM | > 100 µM | > 100 µM | > 100 µM |  |  |  |  |  |  |  |  |  |  |
| c1ccc(-c2nc3n(c2-c2ccc4c(c2)OCO4)CCC3)nc1 | > 25 µM | > 22.6 µM | 24.9 µM | > 25 µM | > 25 µM | 10.7 µM | > 25 µM | > 23.2 µM | 15.8 µM | > 25 µM | 6.96 µM | 7.69 µM | 3.89 µM | 7.56 µM | 8.47 µM | 2.56 µM | 7.79 µM | 7.37 µM | 2.41 µM | 9.59 µM |
| O=C(c1ccc2ccccc2c1)c1nc2cc(F)ccc2[n+]([O-])c1C(F)(F)F | 33.9 µM | 29.9 µM | > 100 µM | 71.4 µM | 37 µM | 24.9 µM | 35.2 µM | 21.6 µM | 36.8 µM | 29.1 µM | 18.1 µM | 16.3 µM | 31.6 µM | 26.6 µM | 17.3 µM | 6.68 µM | 16.3 µM | 8.36 µM | 18.7 µM | 13 µM |
| CC(NC(=O)Cc1ccc(C(F)(F)P(=O)(OCc2ccc([N+](=O)[O-])o2)N(C)CCCCCl)cc1)c1ccc(OCC2CCCCC2)c(C(N)=O)c1 (stereo unspecified) | 10.9 µM | 9.82 µM | 3.97 µM | 10.9 µM | 15.8 µM | 4.72 µM | 21.2 µM | 25.5 µM | 12 µM | 15.3 µM | 3.33 µM | 2.31 µM | 1.77 µM | 5.35 µM | 6.82 µM | 1.89 µM | 5.8 µM | 9.93 µM | 3.33 µM | 4.11 µM |
| CCCN(CCC)c1ccc(C=O)c(Cl)c1 | 29.9 µM | 6.7 µM | 53 µM | > 100 µM | > 100 µM | 76.1 µM | 50.2 µM | 7.18 µM | 14.2 µM | > 100 µM | 6.6 µM | 1.67 µM | 20 µM | 28.1 µM | 20.9 µM | 27.8 µM | 18.4 µM | 0.558 µM | 0.78 µM | 25.6 µM |
| COc1ccc(O)c(C(=O)CCC(=O)O)c1 | > 100 µM | > 10 µM | > 100 µM | > 100 µM | > 100 µM | > 100 µM | > 100 µM | > 100 µM | > 100 µM | > 100 µM |  |  |  |  |  |  |  |  |  |  |
| CCOC(=O)c1ccc(NC(=O)NC2=NCCS2)cc1 | > 100 µM | 0.897 µM | > 100 µM | > 100 µM | > 100 µM | > 100 µM | > 100 µM | > 100 µM | > 100 µM | > 100 µM | 0.899 µM | 0.289 µM | 0.693 µM | 0.954 µM | 22.9 µM | 0.503 µM | > 93.5 µM | 2.11 µM | 56.1 µM | 3.61 µM |
| COc1cccc(CNc2ncnc3c2ncn3C2OC(CO)C(O)C2O)c1O (stereo unspecified) | > 100 µM | 4.11 µM | > 100 µM | > 100 µM | > 100 µM | 0.224 µM | > 100 µM |  | > 100 µM | > 100 µM | 0.522 µM | 0.539 µM | 0.27 µM | 0.045 µM | 0.159 µM | 0.0303 µM | 0.9 µM | 0.206 µM | 0.105 µM | 0.282 µM |
| Nc1nc(N)c2cc(Sc3ccc4ccccc4c3)ccc2n1 | 3.38 µM | 8.63 µM | 3.27 µM | 8.93 µM | 1.91 µM | 2.77 µM | 3.7 µM | 14.1 µM | 5.26 µM | 10.2 µM |  |  |  |  |  |  |  | 0.817 µM |  |  |
